Laboratory results from patent US7345051B2, “Mucin synthesis inhibitors” (Genaera Corporation, priority 2000, dated 2008).
“Also recorded” adds a separate entry of the source. Values belong to the compound of their own block, whether it stands above or below them.

Columns and labels:
H292 clone 15 cells = details: 48 hours compound, Alamar Blue 2 hours; Average of 3 experiments
[1] = test system: MUC5AC production by H292 clone 15 cells overexpressing hCLCA1; test: ELLA of MUC5AC in conditioned media of H292 clone 15 cells; assay type: cell-based, human; details: Average of 3 experiments
activated Caco2 cells = details: Caco-2
[2] = test system: MUC5A/C secretion in hCLCA1 expressing H292 cells; test: MUC5A/C secretion in hCLCA1 expressing H292 cells (ELLA); assay type: cell-based, human; set-up: key to ELLA: + = inhibition; − = no inhibition; details: for ELLA: Table 2, mucin production
Muc5b = test: Inhibition of Muc5b expression; assay type: cell-based; set-up: key: + = inhibition; − = no inhibition; details: Table 2
Experimental: The effects of talniflumate derivatives on mucin production were also assayed for changes in ELLA and IC50 (Table 2) as described in the methods above.

[3] = test system: NCI-H292/hICACC-1 (AAF 15) cells; test: AB/PAS staining of mucous glycoconjugates in NCI-H292 cells over-expressing hICACC-1; assay type: cell-based, human; details: 3 days
Experimental: NCI-H292 cells, a human pulmonary mucoepidermoid carcinoma cell line, were purchased from the American Type Culture Collection (Manassas Va.) and cultured in RPMI1640 medium supplemented with 10% FBS and 1% penicillin/streptomycin (Gibco/BRL). The cells were grown in a humidified, air-containing incubator, supplemented with 5% CO2 at 37° C. Stable NCI-H292 cell lines over-expressing hICACC-1 were established by transfection of pcDNA3-hICACC-1 using a Fujin Transfection kit according to the manufacture's instruction (Boehringer-Mannheim). A control cell line was produced, NCI-H292/ctl, by the transfection of pcDNA3 (ctl) into the NCI-H292 cell line using the same procedure. Expression of the hICACC-1 gene was confirmed for the pcDNA3-hICACC-1 transfectent by Northern analysis.
For the determination of mucous glycoconjugate production, NCI-H292/ctl and NCI-H292/hICACC-1 (AAF 15) cells were cultured in 24-well plates for 3 days. Cells were then fixed with Formalin and mucous glycoconjugates were visualized by AB/PAS staining (Sigma). […] For chloride channel blockage studies, cells were cultured in the presence of niflumic acid (NFA) (Sigma) at 100 μM concentration, mefanamic acid (MFA) at 125 or 250 μM or talniflumate at 12.5, 25 or 50 μM, or media alone.

[4] = test system: activated Caco2 cell line; test: Viability of activated Caco2 cells treated with NFA; assay type: cell-based; details: even higher concentrations of NFA
activated LHL4 cells = test: Eotaxin production by activated LHL4 cells (ELISA); assay type: cell-based; details: increasing concentrations
Experimental: Activated LHL4 cells that express and secrete eotaxin have been produced and used to test for inhibitors of eotaxin production. These cells were assayed in vitro for eotaxin by an ELISA technique well known in the art (R&D Systems).

[5] = test system: mice sensitized by nasal aspiration of Aspergillus fumigatus antigen; assay type: in vivo
IL9 transgenic mice = test: Mucin production in lungs of IL9 transgenic mice, intra-tracheal treatment; assay type: in vivo; details: NFA (100 μg) IT once daily for three days
Experimental: Certified virus-free male and female IL9 transgenic mice (IL9TG5-FVB/N) 5-6 weeks of age were bred in our laboratories. Male and female FVB/N mice 5-6 weeks of age were purchased from Jackson Laboratories (Bar Harbor Me.). Animals were housed in high-efficiency, particulate filtered air and allowed free access to food and water for 3 to 7 days prior to experimental manipulation. The animal facilities were maintained at 22° C. and the light:dark cycle was automatically controlled (10:14 hour light:dark).
Animals were phenotyped, naïve, or 24 hrs after receiving intra-tracheal (IT) shame (vehicle) treatment, or drugs in the same vehicle as was used in identically treated controls. Mice were treated IT once daily for three days. NFA (100 μg) or antibody to IL-9 were administered in PBS IT. […] The up-regulation of mucus production in the IL9 transgenic is specifically associated with increased steady-state mRNA levels of MUC2 and MUC5AC as shown by RT-PCR (FIG. 9).

[6] = test system: B6D2F1 mice sensitized with Aspergillus fumigatus; test: Murine asthma model, Aspergillus fumigatus sensitization, Talniflumate containing mouse chow; assay type: in vivo; details: oral
MUC2 transcription = test: MUC2 promoter luciferase reporter, lipoteichoic acid induction; assay type: cell-based; details: LTA from S. aureus; FIG. 22
Experimental: MUC2 transcription was monitored as described in Li et al. (1998) Proc. Natl. Acad. Sci., USA, Vol. 95, pp. 5718-5723. Briefly, an epithelial cell line was transfected with a reporter construct containing the promoter region from the MUC2 gene cloned upstream of a luciferase reporter gene. Transfected cells were treated with serum free media (SFM) alone or, as indicated, containing lipoteichoic acid from S. aureus bacteria (LTA), adenosine (aden), or talniflumate (MSI). Cells were then lysed and luciferase enzyme activity in the lysates was measured (RLU). Talniflumate modulated the lipoteichoic acid induction of MUC2 (see FIG. 22). This is also an appropriate model for CF.

[7] = test system: human chloride channel hICACC-1; test: Patch clamp chloride current, NCI-H292 cell expressing hICACC-1; assay type: cell-based; details: 5 micromolar talniflumate; 2 μM ionomycin and 2 mM calcium
Experimental: An NCI-H292 cell transfected with a plasmid expressing the human chloride channel hICACC-1 was patch clamped and chloride current (I) was measured over a range of voltages (V). Substantial chloride current was invoked by the addition of 2 μM ionomycin and 2 mM calcium (circles) compared to baseline (squares), indicating activation of hICACC-1.

[8] = test system: CF mice (CF knock-out mice and CF ΔF508 mice); details: po, 100 mg/kg
[9] = target: T1, murine chloride channel, mICACC-1 (Mus musculus, UniProt Q9D7Z6); test: Patch clamp chloride current, HEK293 cell expressing mICACC-1; assay type: cell-based; details: for Chloride Current (nA/pF): + ionomycin + Ca
T1 construct: expressed in transfected cells; host or cells: HEK293
T1 sequence (Q9D7Z6 22-913): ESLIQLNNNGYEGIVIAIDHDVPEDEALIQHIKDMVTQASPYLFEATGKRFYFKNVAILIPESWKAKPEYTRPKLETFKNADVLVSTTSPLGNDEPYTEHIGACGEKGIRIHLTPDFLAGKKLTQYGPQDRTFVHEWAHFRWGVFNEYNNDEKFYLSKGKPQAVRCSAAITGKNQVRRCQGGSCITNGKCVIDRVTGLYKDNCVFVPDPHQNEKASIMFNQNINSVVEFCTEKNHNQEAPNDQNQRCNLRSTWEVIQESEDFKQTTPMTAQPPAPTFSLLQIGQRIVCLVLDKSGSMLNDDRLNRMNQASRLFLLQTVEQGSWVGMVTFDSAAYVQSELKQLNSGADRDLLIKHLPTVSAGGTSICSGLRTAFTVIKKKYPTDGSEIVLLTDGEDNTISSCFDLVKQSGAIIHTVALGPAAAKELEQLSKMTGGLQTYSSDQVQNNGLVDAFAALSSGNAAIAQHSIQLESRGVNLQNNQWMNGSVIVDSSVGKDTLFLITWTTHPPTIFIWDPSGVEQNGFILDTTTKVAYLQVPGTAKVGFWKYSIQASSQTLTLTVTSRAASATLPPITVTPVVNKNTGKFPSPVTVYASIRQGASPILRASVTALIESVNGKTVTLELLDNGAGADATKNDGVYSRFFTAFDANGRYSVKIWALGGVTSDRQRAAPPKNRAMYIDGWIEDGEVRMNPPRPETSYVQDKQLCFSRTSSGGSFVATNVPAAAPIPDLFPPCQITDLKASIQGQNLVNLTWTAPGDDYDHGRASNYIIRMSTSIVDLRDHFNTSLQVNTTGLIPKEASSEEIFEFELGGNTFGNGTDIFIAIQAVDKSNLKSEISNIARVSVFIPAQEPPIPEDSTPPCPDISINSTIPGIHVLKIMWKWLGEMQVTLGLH
Experimental: A HEK293 cell transfected with a plasmid expressing a murine chloride channel, mICACC-1, was patch clamped and chloride current was measured over a range of voltages (V, left column) and the results are shown in Table 3 below. Each row lists currents invoked at a particular positive voltage in the absence (−) or presence (+) of ionomycin and calcium, and in the presence of an indicated concentration of diclofenac (μM). Substantial current was invoked by the addition of 2 μM ionomycin and 2 mM calcium-compare the first two columns-indicating activation of mICACC-1 by the ionomycin/calcium treatment. For example, at 100 mV of positive voltage, the chloride current was increased from 39 nA/pF to 105 nA/pF.

SMILES: O=C1OC(CC(=O)c2cccnc2Oc2cccc(Br)c2)c2ccccc21 (stereo not drawn) [Compound 14]
Est. LD50 (μM)(alamar Blue)* (H292 clone 15 cells): 16 µM

SMILES: O=C1OC(CC(=O)c2cccnc2Sc2ccccc2Cl)c2ccccc21 (stereo not drawn) [Compound 15]
IC50 ([1]; Homo sapiens, NCI-H292, 48 hours): 2.5 µM
Est. LD50 (μM)(alamar Blue)* (H292 clone 15 cells): 15 µM

Mucin production by activated Caco2 cells (activated Caco2 cells): inhibited
SMILES: O=C(O)c1ccccc1Nc1cccc(C(F)(F)F)c1 [Flufenamate]

SMILES: COC(=O)c1cccnc1Nc1cccc(C(F)(F)F)c1 [MSI 2213, Niflumic acid methyl ester]
ELLA [2]: −

SMILES: O=C1OC(CC(=O)c2cccnc2Nc2cccc(C(F)(F)F)c2)c2ccccc21 (stereo not drawn) [MSI 2216]
IC50 ([2]; Table 2, ELLA): 5 µM
ELLA [2]: +
Inhibition of Muc5b Expression (Muc5b): +
IC50 ([1]; 48 hours): 3 µM
Est. LD50 (μM)(alamar Blue)* (H292 clone 15 cells): 32 µM

Mucin production by activated Caco2 cells (activated Caco2 cells): partially
SMILES: Cc1ccc(Cl)c(Nc2ccccc2C(=O)O)c1Cl [Meclofenamate]

Mucin production by activated Caco2 cells (activated Caco2 cells): partially
SMILES: Cc1cccc(Nc2ccccc2C(=O)O)c1C [Mefenamate]
PAS positive staining muco-glycoconjugates compared with untreated cells ([3]; MFA at 125 or 250 μM): significantly fewer positive staining muco-glycoconjugates

SMILES: O=C(O)c1cccnc1Nc1cccc(C(F)(F)F)c1 [NFA, niflumic acid]
viability [4]: not affected; also recorded: did not effect their viability
eotaxin production (activated LHL4 cells): Significant inhibition; also recorded: blocks epithelial activation including chemokine production
serum IgE levels ([5]; 100 μg of NFA intra-tracheal, days 0-21, vs PBS): no effect
BAL lung eosinophilia ([5]; mouse, in vivo): suppress; also recorded: reduces antigen-induced lung eosinophilia in vivo
antigen-induced airway hyperresponsiveness ([5]; mouse, in vivo): suppress; also recorded: suppresses antigen-induced airway hyperresponsiveness
mucin production in the IL9 transgenic lungs (IL9 transgenic mice): decreased mucin production
PAS positive staining muco-glycoconjugates compared with untreated cells ([3]; NFA at 100 μM): significantly fewer positive staining muco-glycoconjugates

Mucin production by activated Caco2 cells (activated Caco2 cells): ineffective
SMILES: COc1ccc2cc([C@H](C)C(=O)O)ccc2c1 [Naproxen]

Mucin production by activated Caco2 cells (activated Caco2 cells): ineffective
SMILES: CC1=C(CC(=O)O)c2cc(F)ccc2/C1=C\c1ccc([S+](C)[O-])cc1 (stereo not drawn) [Sulindac]

SMILES: O=C1OC(OC(=O)c2cccnc2Nc2cccc(C(F)(F)F)c2)c2ccccc21 (stereo not drawn) [Talniflumate, talniflumate]
lung eosinophilia, number of eosinophilic cells by bronchoalveolar lavage ([6]; Talniflumate coated chow, sensitized mice vs standard chow): reduced the number of eosinophilic cells; also recorded: inhibition of lung eosinophilia
mucin staining (PAS) in lung ([6]; Talniflumate containing chow ad lib, Asp-sens mice vs regular chow): reduced mucin staining; also recorded: inhibition of mucin over production
PAS positive staining muco-glycoconjugates compared with untreated cells ([3]; talniflumate at 12.5, 25 or 50 μM): significantly fewer positive staining muco-glycoconjugates
lipoteichoic acid induction of MUC2 (luciferase, RLU) (MUC2 transcription): modulated
chloride current at positive voltage [7]: reduction in chloride current
body weight gained [8]: 8-12%
Est. LD50 (μM)(alamar Blue)* (H292 clone 15 cells): 108 µM

Chloride Current (nA/pF) ([9]; 0 mV, diclofenac 5 μM): 20 nA/pF
Chloride Current (nA/pF) ([9]; 0 mV, diclofenac 20 μM): 20 nA/pF
Chloride Current (nA/pF) ([9]; 0 mV, diclofenac 50 μM): 19 nA/pF
Chloride Current (nA/pF) ([9]; 20 mV, diclofenac 5 μM): 36 nA/pF
Chloride Current (nA/pF) ([9]; 20 mV, diclofenac 20 μM): 34 nA/pF
Chloride Current (nA/pF) ([9]; 20 mV, diclofenac 50 μM): 33 nA/pF
Chloride Current (nA/pF) ([9]; 40 mV, diclofenac 5 μM): 53 nA/pF
Chloride Current (nA/pF) ([9]; 40 mV, diclofenac 20 μM): 51 nA/pF
Chloride Current (nA/pF) ([9]; 40 mV, diclofenac 50 μM): 48 nA/pF
Chloride Current (nA/pF) ([9]; 60 mV, diclofenac 5 μM): 72 nA/pF
Chloride Current (nA/pF) ([9]; 60 mV, diclofenac 20 μM): 69 nA/pF
Chloride Current (nA/pF) ([9]; 60 mV, diclofenac 50 μM): 66 nA/pF
Chloride Current (nA/pF) ([9]; 80 mV, diclofenac 5 μM): 92 nA/pF
Chloride Current (nA/pF) ([9]; 80 mV, diclofenac 20 μM): 88 nA/pF
Chloride Current (nA/pF) ([9]; 80 mV, diclofenac 50 μM): 85 nA/pF
Chloride Current (nA/pF) ([9]; 100 mV, diclofenac 5 μM): 115 nA/pF
Chloride Current (nA/pF) ([9]; 100 mV, diclofenac 20 μM): 109 nA/pF
Chloride Current (nA/pF) ([9]; 100 mV, diclofenac 50 μM): 106 nA/pF
inhibition of channel activity ([9]; diclofenac 5 μM to 50 μM, 2 μM ionomycin and 2 mM calcium): No inhibition
SMILES: O=C(O)Cc1ccccc1Nc1c(Cl)cccc1Cl [diclofenac]
